Test results from paper PMC10403511, “DNA-encoded chemical libraries yield non-covalent and non-peptidic SARS-CoV-2 main protease inhibitors” (Communications Chemistry, 2023).
Where two headings read alike, the source gives them in different places.

Experiments:
HepG2 cells [1] = format: in vitro ADME; settings: 10 μM, 2 h
Experimental: The plate was incubated at 37 °C for another 2 h, and the medium in the plate was then decanted. The cells were rinsed with 1 mL of 1× DPBS three times, trypsinized at 37 °C for 3.5 min, centrifuged, and the cell pellets from each well were reconstituted in 500 μL of MeOH/H2O (vol/vol 1/1). […] The mixtures were centrifuged at 15,000 rcf for 15 min. Three microliters of the supernatant were injected into UHPLC-Q Exactive Orbitrap MS (Thermo Fisher Scientific) equipped with a 50 × 4.6-mm column (XDB C-18; Agilent Technologies) for analysis. The column temperature was set at 40 °C. The mobile phase system was (A) water (containing 0.1% formic acid) and (B) acetonitrile (containing 0.1% formic acid), with a flow rate of 0.3 mL/min. The gradient elution program was set as follows: 0 to 0.25 min, 40% B; 0.25 to 1.5 min, 40 to 98% B; 1.5 to 3.5 min, 98% B; 3.5 to 3.8 min, 98 to 40% B; 3.8 to 5 min, 40% B. Ultrapure nitrogen was used as the sheath (45 arbitrary units), auxiliary (10 arbitrary units), and sweep (1.0 arbitrary unit) gas. The capillary and auxiliary gas temperatures were 275 °C and 380 °C, respectively. The spray voltage was 3.75 kV. […]
were expressed as the intracellular concentrations (peak areas) of these compounds. […]
and homogenized. The intracellular concentrations were measured with UHPLC-Q E xa ct ive Orbitrap MS. ND stands for “not detected”.

thrombin = molecular target: T1, thrombin (Homo sapiens, UniProt P00734); experiment: Human protease off-target assay, commercial kit; format: biochemical; settings: 10 µM compound
T1 construct: purchased Sigma-Aldrich MAK243
Experimental: (§1) These assays were done exactly as we described earlier. In brief, commercial kits were used for all four human proteases as follows: Cathepsin B (BPS Bioscience, #79590), Renin (BPS Bioscience, #80211), Thrombin (Sigma-Aldrich, #MAK243), and MMP-1 (Biovision, #K794-100). All assays were run in kinetic mode and at RT, except MMP-1, which was run at 37 °C. Positive controls were used for all assays, i.e., E64 for Cathepsin B, Aliskiren for Renin, CDD-1472 for Thrombin, and GM 6001 for MMP-1. Activities were obtained from linear initial progress curves, and fractional activities were calculated from reactions with no inhibitors[17],[19],[34].
(§2) Supplementary Figure 4. Potential off-target inhibition of major proteases, i.e. thrombin (a serine protease), cathepsin B (a cysteine protease like Mpro), renin (an
(§3) control inhibitors as indicated. S9 […]

renin = molecular target: T2, renin (Homo sapiens, UniProt P00797); experiment: Human protease off-target assay, commercial kit; format: biochemical; settings: 11.1 µM compound
T2 construct: purchased BPS Bioscience 80211
T2 sequence (P00797 67-406): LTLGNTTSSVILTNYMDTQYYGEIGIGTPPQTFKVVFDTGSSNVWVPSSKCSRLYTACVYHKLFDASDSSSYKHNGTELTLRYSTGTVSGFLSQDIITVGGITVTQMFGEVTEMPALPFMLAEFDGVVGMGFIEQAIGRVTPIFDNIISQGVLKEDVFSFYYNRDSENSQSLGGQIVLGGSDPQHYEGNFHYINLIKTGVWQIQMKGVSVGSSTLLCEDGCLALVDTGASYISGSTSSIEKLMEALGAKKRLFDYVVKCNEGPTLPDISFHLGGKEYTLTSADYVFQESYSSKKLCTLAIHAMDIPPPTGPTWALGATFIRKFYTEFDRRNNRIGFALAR
Experimental: as §1, §2, §3

[2] = molecular target: T3, matrix metallopeptidase-1 (MMP-1) (Homo sapiens, UniProt P03956); experiment: Human protease off-target assay, commercial kit; format: biochemical; settings: 10 µM compound, 37 °C
T3 construct: purchased Biovision K794-100
T3 sequence (P03956 100-469): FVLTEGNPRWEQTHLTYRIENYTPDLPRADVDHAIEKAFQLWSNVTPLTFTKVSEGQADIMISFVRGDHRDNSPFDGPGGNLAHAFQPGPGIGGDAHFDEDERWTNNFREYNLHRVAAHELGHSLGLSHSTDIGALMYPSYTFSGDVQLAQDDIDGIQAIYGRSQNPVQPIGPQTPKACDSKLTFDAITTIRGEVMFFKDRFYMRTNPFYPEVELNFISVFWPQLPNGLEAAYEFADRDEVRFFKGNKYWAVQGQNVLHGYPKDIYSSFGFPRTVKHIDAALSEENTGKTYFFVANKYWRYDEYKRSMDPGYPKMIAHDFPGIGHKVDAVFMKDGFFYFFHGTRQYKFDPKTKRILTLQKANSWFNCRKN
Experimental: as §1, §2, §3

cathepsin B = molecular target: T4, cathepsin B (Homo sapiens, UniProt P07858); experiment: Human protease off-target assay, commercial kit; format: biochemical; settings: 10 µM compound
T4 construct: purchased BPS Bioscience 79590
Experimental: as §1, §2, §3

HepG2 cells [3] = experiment: cells; settings: Homo sapiens, HepG2, 24 h, read-out: IC50 (HepG2 cell viability)
HepG2 cells [4] = system: HepG2 cells
[5] = format: in vitro ADME, mouse; settings: 10 μM
Experimental: (§4) At time points of 0, 30, 60, and 120 min, 15 μL of the samples were taken out, and the reactions were terminated by adding 75 μL of ice-cold methanol. The reaction mixtures were then vortexed for 30 s and centrifuged at 15,000 rcf for 15 min. […] The percentage of test compound remaining at the individual time points was normalized by the 0-min.
(§5) 10 µM in duplicate (n=2) at 37 °C. The reactions were terminated at time points of 0, 30, 60 and 120 min by adding ice-cold methanol. Following centrifugation, the supernatant was analyzed using UHPLC-Q E xa ct ive Orbitrap MS. The percentage of test compound remaining at the individual time points relative to the 0 min sample was determined S12

[6] = format: in vitro ADME, human; settings: 10 μM
Experimental: as §4, §5

in vitro = settings: human
in vivo = settings: 50 mg/kg; for half-life: plasma; for CL/F: mice, per oral gavage (po.), n=4, mean ± SD
Experimental: The whole blood samples were centrifuged at rcf 2000 for 5 min for the plasma separation of plasma. The plasma samples were stored at −80 °C before analysis. All the samples were analyzed with a Q Exactive orbitrap MS coupled with UHPLC (Thermo Fisher Scientific, San Jose, CA). LC-Q Exactive MS was operated in the same parameters used in the cell uptake assay above. The concentration of these compounds in plasma was quantified using individual calibration curves.
PK parameters such as half-time (T1/2), area under the plasma concentration–time curve during the period of observation (AUC0–t), area under the plasma concentration–time curve from zero to infinity (AUC0–∞), clearance normalized by the bioavailability (CL/F), and the mean residence time (MRT) were calculated by WinNonlin software (Certara, Princeton, NJ) by noncompartmental analysis. The plasma concentration–time curves were plotted in Prism 7 (GraphPad, San Diego, CA) as mean ± S.D.
Mouse PK of CDD compounds, 50 mg/kg
samples we re collected at 0, 5, 10, 15, 30 m in , 1, 2, 4, 6 and 8 h af ter dosing. P la sm a samples we re separated, prepared and analyzed wit h LC-MS. The compound
± SD (n=4). Tmax, time to rea ch the m a ximum pla sma concentration. Cm ax, maximum p las m a concentration. T1/2, half-lif e . AUC, area under the cu rve . CL, clea ran ce . F,
bioavailability. M R T, mean residence time.

M^pro variant A173V = settings: previously shown; cited from earlier work
[7] = system: M^pro variant ΔP168/A173V; settings: previously shown; cited from earlier work

In the case of `CCC[C@H](NC(=O)c1cccc2nc(-c3cncc4ccccc34)n([C@H]3C[C@H](C(=O)NC)C3)c12)c1ccc(C(F)(F)F)cc1` [CDD-1733], the “cell uptake (permeability)” value (HepG2 cells [1]) is reported as “good permeability”, the “inhibition of enzymatic activity” value (thrombin) is reported as “None of these inhibitors blocked the enzymatic activity” and the “inhibition of enzymatic activity” value (renin) is reported as “None of these inhibitors blocked the enzymatic activity”. The “inhibition of enzymatic activity” value [2] was “None of these inhibitors blocked the enzymatic activity”, the “inhibition of enzymatic activity” value (cathepsin B) was “None of these inhibitors blocked the enzymatic activity” and the IC50 (HepG2 cells [3]) was greater than 100 µM. The cytotoxicity (HepG2 cells [4]; HepG2 cells) was “no obvious cytotoxicity”, the “compound remaining in plasma” value ([5]; mouse plasma, 37 °C, after 2 h incubation) was 80% and the “compound remaining in plasma” value ([6]; human plasma, 37 °C, after 2 h incubation) was 80%.

For `CNC(=O)[C@H]1C[C@H](n2c(-c3cncc4ccccc34)nc3cccc(C(=O)N[C@@H](C)c4ccc5ccccc5c4)c32)C1` [CDD-1819], the viability at 24 h, 100 µM (in vitro) was greater than 80%, the “inhibition of enzymatic activity” value (thrombin) was “None of these inhibitors blocked the enzymatic activity” and the “inhibition of enzymatic activity” value (renin) was “None of these inhibitors blocked the enzymatic activity”. For the same molecule, the “inhibition of enzymatic activity” value [2] was “None of these inhibitors blocked the enzymatic activity”, the “inhibition of enzymatic activity” value (cathepsin B) was “None of these inhibitors blocked the enzymatic activity” and the MRT inf (in vivo; male, mouse, in vivo, po) was 1.42 ± 0.16 h. It also gave an MRT last (in vivo; male, mouse, in vivo, po) of 1.31 ± 0.12 h, a Tmax (in vivo; male, mouse, in vivo, po) of 0.33 ± 0.14 h and a half-life (in vivo; male, mouse, oral) of 1.2 ± 0.1 h. The CL/F (in vivo) was 7.26 ± 1.81 mg/ ( hr*µmol/L)/kg, the IC50 (HepG2 cells [3]) was greater than 100 µM and the cytotoxicity (HepG2 cells [4]) was “no obvious cytotoxicity”. The “compound remaining in plasma” value ([5]; mouse, plasma, 2 h) was 80% and the “compound remaining in plasma” value ([6]; human, plasma, 2 h) was 80%.

In the case of `CNC(=O)CCCn1c(-c2cncc3ccccc23)nc2cccc(C(=O)N[C@@H](C)c3ccc4ccccc4c3)c21` [CDD-1845], the viability at 24 h, 100 µM (in vitro) is reported as greater than 80%, the “inhibition of enzymatic activity” value (thrombin) is reported as “None of these inhibitors blocked the enzymatic activity” and the “inhibition of enzymatic activity” value (renin) is reported as “None of these inhibitors blocked the enzymatic activity”. For the same molecule, the “inhibition of enzymatic activity” value [2] was “None of these inhibitors blocked the enzymatic activity”, the “inhibition of enzymatic activity” value (cathepsin B) was “None of these inhibitors blocked the enzymatic activity” and the AUC(0-inf) (in vivo; male, mouse, in vivo, po) was 14.9 ± 7.85 µM·h. It also gave an AUC(0-t) (in vivo; male, mouse, in vivo, po) of 14.9 ± 7.79 µM·h, a Cmax (in vivo; male, mouse, in vivo, po) of 8.93 ± 4.55 µM and an MRT inf (in vivo; male, mouse, in vivo, po) of 1.25 ± 0.02 h. The MRT last (in vivo; male, mouse, in vivo, po) was 1.22 ± 0.03 h, the Tmax (in vivo; male, mouse, in vivo, po) was 0.33 ± 0.14 h and the half-life (in vivo; male, mouse, oral) was 1.1 ± 0.3 h. The half-life (in vivo; male, mouse, po) was 1.14 ± 0.32 h, the CL/F (in vivo) was 4.02 ± 1.98 mg/ ( hr*µmol/L)/kg and the IC50 (HepG2 cells [3]) was greater than 100 µM. For the same molecule, the cytotoxicity (HepG2 cells [4]) was “no obvious cytotoxicity”, the “compound remaining in plasma” value ([5]; mouse, plasma, 2 h) was 80% and the “compound remaining in plasma” value ([6]; human, plasma, 2 h) was 80%.

In the case of `CC(C)(C)[C@H](NC(=O)C(F)(F)F)C(=O)N1C[C@H]2[C@@H]([C@H]1C(=O)N[C@H](C#N)C[C@@H]1CCNC1=O)C2(C)C` [Nirmatrelvir, nirmatrelvir], the “increase in Ki relative to WT” value (M^pro variant A173V) is listed as 50 fold and the “increase in Ki relative to WT” value [7] is listed as 600 fold.
